# Data: patent US9155795B2, “CXCR4 receptor compounds” (Anchor Therapeutics, Inc., priority 2010, dated 2015)
# Where a SMILES comes first, the peptide text is derived from it. [ ]: non-standard residue; d: D form. The star is where a group is joined. Palmitoyl = CCCCCCCCCCCCCCCC(=O)*; Cit = NC(=O)NCCC[C@H](N)C(=O)O; X1 = CCCCCCCCCCCCOCCC(=O)*; hSer = N[C@@H](CCO)C(=O)O; Dap = NC[C@H](N)C(=O)O
# Biological target: T1, CXCR4 (Homo sapiens, UniProt P61073)
# T1 construct: CCRF-CEM cells, a human T-cell ALL line that endogenously expresses CXCR4; endogenous in cells; host or cells: CCRF-CEM (human T-cell acute lymphoblastic leukemia line)
# T1 sequence (P61073 whole entry): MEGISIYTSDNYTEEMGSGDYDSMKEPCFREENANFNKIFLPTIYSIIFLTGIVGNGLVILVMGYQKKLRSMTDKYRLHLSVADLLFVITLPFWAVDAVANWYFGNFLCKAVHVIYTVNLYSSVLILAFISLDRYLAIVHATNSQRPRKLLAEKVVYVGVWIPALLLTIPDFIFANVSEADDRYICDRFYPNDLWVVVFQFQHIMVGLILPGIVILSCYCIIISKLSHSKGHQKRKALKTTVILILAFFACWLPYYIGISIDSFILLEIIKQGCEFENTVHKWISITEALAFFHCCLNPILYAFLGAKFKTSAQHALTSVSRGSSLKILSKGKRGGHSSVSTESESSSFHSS
# Assay: Calcium flux assay, agonist mode, Flexstation (CCRF-CEM cells)
# Format: cell-based
# Conditions: CCRF-CEM, percent of maximum response compared with SDF-1α, read-out: % Intrinsic Activity
# From the text: Calcium Flux Assay is one of the most popular cell-based GPCR functional assays. It most often uses calcium sensing fluorescent dyes such as fura2 AM, fluo-4 and Calcium-4 to measure changes in intracellular calcium concentration. It is used mainly to detect GPCR signaling via Gαq subunit. Activation of these Gq-coupled GPCRs leads to activation of phospholipase C, which subsequently leads to increase in inositol phosphate production. IP3 receptors on endoplasmic reticulum sense the change then release calcium into cytoplasm. Intracellular calcium binding to the fluorescent dyes can be detected by instruments that quantify fluorescent intensities, such as FLIPR Tetra, Flexstation (MDS) and FDSS (Hamamatsu). In addition, to assess Gq-couple receptor signaling, a calcium flux assay can also be used to study Gs and Gi couple receptors by co-expressing CNG (cyclic nucleotide gated calcium channel) or chimeric G-proteins (Gqi5, Gsi5 for example). Activation of some Gi-coupled receptors can also be detected by calcium flux assay via Gβγ mediated phospholipase C activation.
# The calcium flux assay was used to assess the test compounds' ability to activate the CXCR4 receptor in CCRF-CEM cells (human T lymphoblasts from acute lymphoblastic leukemia). […] After dye loading by incubating with Calcium-4 dye at 37° C. for 1 hour, cell plates were read at 37° C. using the using the Flexstation 3 workstation. Receptor activation was assessed by measuring changes in fluorescent intensity after the addition of the test compounds or the reference agonist SDF-1α on the using the Flexstation 3 workstation. EC50
# and percent intrinsic actively were derived from the data collected. Intrinsic activity refers to the efficacy of the test compound and is calculated as the percent of maximum response compared with the response of the reference standard (i.e., natural agonist, SDF-1α).
row,SMILES,Emax
1,CCCCCCCCCCCCCCCC(=O)NCC(=O)NCC(=O)N[C@@H](Cc1ccc(O)cc1)C(=O)N[C@@H](CCC(N)=O)C(=O)N[C@@H](CCCCN)C(=O)N[C@@H](CCCCN)C(=O)N[C@@H](CC(C)C)C(=O)N[C@@H](CCCNC(=N)N)C(=O)N1CCC[C@@H]1C(=O)N[C@@H](CN)C(=O)N[C@H](C(=O)N[C@@H](CC(=O)O)C(=O)N[C@@H](CCCCN)C(=O)N[C@@H](Cc1ccc(O)cc1)C(=O)N[C@@H](CCCNC(=N)N)C(=O)N[C@@H](CC(C)C)C(N)=O)[C@@H](C)O [Compound 34] (Palmitoyl-GGYQKKLR[dP][Dap]TDKYRL-NH2; C-terminus assumed),103%
2,CCCCCCCCCCCCCCCC(=O)NCC(=O)NCC(=O)N[C@@H](Cc1ccc(O)cc1)C(=O)N[C@@H](CCC(N)=O)C(=O)N[C@@H](CCCCN)C(=O)N[C@@H](CCCCN)C(=O)N[C@@H](CC(C)C)C(=O)N[C@@H](CCCNC(=N)N)C(=O)N1CCC[C@@H]1C(=O)N1CCC[C@@H]1C(=O)N[C@@H](Cc1c[nH]cn1)C(=O)N[C@H](C(=O)N[C@@H](CC(=O)O)C(=O)N[C@@H](CCCCN)C(=O)N[C@@H](Cc1ccc(O)cc1)C(=O)N[C@@H](CCCNC(=N)N)C(=O)N[C@@H](CC(C)C)C(N)=O)[C@@H](C)O [Compound 32] (Palmitoyl-GGYQKKLR[dP][dP]HTDKYRL-NH2; C-terminus assumed),91.1%
3,CCCCCCCCCCCCCCCC(=O)NCC(=O)NCC(=O)N[C@@H](Cc1ccc(O)cc1)C(=O)N[C@@H](CCC(N)=O)C(=O)N[C@@H](CCCCN)C(=O)N[C@@H](CCCCN)C(=O)N[C@@H](CC(C)C)C(=O)N[C@@H](CCCNC(=N)N)C(=O)N1CCC[C@@H]1C(=O)N[C@@H](C)C(=O)N[C@H](C(=O)N[C@@H](CC(=O)O)C(=O)N[C@@H](CCCCN)C(=O)N[C@@H](Cc1ccccc1)C(=O)N[C@@H](CCCNC(=N)N)C(=O)N[C@@H](CC(C)C)C(N)=O)[C@@H](C)O [Compound 29] (Palmitoyl-GGYQKKLR[dP]ATDKFRL-NH2; C-terminus assumed),88.9%
4,CCCCCCCCCCCCCCCC(=O)NCC(=O)NCC(=O)N[C@@H](Cc1ccc(O)cc1)C(=O)N[C@@H](CCC(N)=O)C(=O)N[C@@H](CCCCN)C(=O)N[C@@H](CCCCN)C(=O)N[C@@H](CC(C)C)C(=O)N[C@@H](CCCNC(=N)N)C(=O)N1CCC[C@@H]1C(=O)N[C@@H](Cc1c[nH]c2ccccc12)C(=O)N[C@H](C(=O)N[C@@H](CC(=O)O)C(=O)N[C@@H](CCCCN)C(=O)N[C@@H](Cc1ccc(O)cc1)C(=O)N[C@@H](CCCNC(=N)N)C(=O)N[C@@H](CC(C)C)C(N)=O)[C@@H](C)O [Compound 33] (Palmitoyl-GGYQKKLR[dP]WTDKYRL-NH2; C-terminus assumed),93%
5,CCCCCCCCCCCCCCCC(=O)N[C@@H](CCSC)C(=O)NCC(=O)N[C@@H](Cc1ccc(O)cc1)C(=O)N[C@@H](CCC(N)=O)C(=O)N[C@@H](CCCCN)C(=O)N[C@@H](CCCCN)C(=O)N[C@@H](CC(C)C)C(=O)N[C@@H](CCCNC(=N)N)C(=O)N[C@@H](CO)C(=O)N1CCC[C@@H]1C(=O)N[C@@H](CCSC)C(=O)N[C@H](C(=O)N[C@@H](CC(=O)O)C(=O)N[C@@H](CCCCN)C(=O)N[C@@H](Cc1ccc(O)cc1)C(=O)N[C@@H](CCCNC(=N)N)C(=O)N[C@@H](CC(C)C)C(N)=O)[C@@H](C)O [Compound 9] (Palmitoyl-MGYQKKLRS[dP]MTDKYRL-NH2; C-terminus assumed),77.9%
6,CCCCCCCCCCCCOCCC(=O)NCC(=O)NCC(=O)N[C@@H](Cc1ccc(O)cc1)C(=O)N[C@@H](CCC(N)=O)C(=O)N[C@@H](CCCCN)C(=O)N[C@@H](CCCCN)C(=O)N[C@@H](CC(C)C)C(=O)N[C@@H](CCCNC(=N)N)C(=O)N[C@@H](CO)C(=O)N[C@@H](C)C(=O)N[C@H](C(=O)N[C@@H](CC(=O)O)C(=O)N[C@@H](CCCCN)C(=O)N[C@@H](Cc1ccc(O)cc1)C(=O)N[C@@H](CCCNC(=N)N)C(=O)N[C@@H](CC(C)C)C(N)=O)[C@@H](C)O [Compound 31] (X1-GGYQKKLRSATDKYRL-NH2; C-terminus assumed),84.2%

# Now from value to compound:
row,Emax,SMILES
1,78.7%,CCCCCCCCCCCCCCCC(=O)NCC(=O)NCC(=O)N[C@@H](Cc1ccc(O)cc1)C(=O)N[C@@H](CCC(N)=O)C(=O)N[C@@H](CCCCN)C(=O)N[C@@H](CCCCN)C(=O)N[C@@H](CC(C)C)C(=O)N[C@@H](CCCNC(=N)N)C(=O)N[C@@H](CO)C(=O)N[C@@H](C)C(=O)N[C@H](C(=O)N[C@@H](CC(=O)O)C(=O)N[C@@H](CCCCN)C(=O)N[C@@H](Cc1ccc(O)cc1)C(=O)N[C@@H](CCCNC(=N)N)C(=O)N[C@@H](CC(C)C)C(=O)N[C@@H](Cc1c[nH]cn1)C(N)=O)[C@@H](C)O [Compound 40] (Palmitoyl-GGYQKKLRSATDKYRLH-NH2; C-terminus assumed)
2,3.61%,CCCCCCCCCCCCCCCC(=O)N[C@@H](CCSC)C(=O)NCC(=O)N[C@@H](Cc1ccc(O)cc1)C(=O)N[C@@H](CCC(N)=O)C(=O)N[C@@H](CCCCN)C(=O)N[C@@H](CCCCN)C(=O)N[C@@H](CC(C)C)C(=O)N[C@@H](CCCNC(=N)N)C(=O)N[C@@H](CO)C(=O)N[C@@H](CCSC)C(=O)N[C@H](C(=O)N[C@@H](CC(=O)O)C(=O)N[C@@H](CCCCN)C(=O)N[C@@H](Cc1ccc(O)cc1)C(=O)N[C@@H](CCCNC(N)=O)C(=O)N[C@@H](CC(C)C)C(N)=O)[C@@H](C)O [Compound 14] (Palmitoyl-MGYQKKLRSMTDKY[Cit]L-NH2)
3,149%,CCCCCCCCCCCCCCCC(=O)NCC(=O)NCC(=O)N[C@@H](Cc1ccc(O)cc1)C(=O)N[C@@H](CCC(N)=O)C(=O)N[C@@H](CCCCN)C(=O)N[C@@H](CCCCN)C(=O)N[C@@H](CC(C)C)C(=O)N[C@@H](CCCNC(=N)N)C(=O)N[C@H](C(=O)N[C@@H](C)C(=O)N[C@H](C(=O)N[C@@H](CC(=O)O)C(=O)N[C@@H](CCCCN)C(=O)N[C@@H](Cc1ccc(O)cc1)C(=O)N[C@@H](CCCNC(=N)N)C(=O)N[C@@H](CC(C)C)C(N)=O)[C@@H](C)O)[C@@H](C)O [Compound 41] (Palmitoyl-GGYQKKLRTATDKYRL-NH2; C-terminus assumed)
4,93.4%,CCCCCCCCCCCCCCCC(=O)N[C@@H](CCSC)C(=O)NCC(=O)N[C@@H](Cc1ccc(O)cc1)C(=O)N[C@@H](CCC(N)=O)C(=O)N[C@@H](CCCCN)C(=O)N[C@@H](CCCCN)C(=O)N[C@@H](CC(C)C)C(=O)N[C@@H](CCCNC(=N)N)C(=O)N[C@@H](CO)C(=O)N[C@@H](Cc1c[nH]cn1)C(=O)N[C@H](C(=O)N[C@@H](CC(=O)O)C(=O)N[C@@H](CCCCN)C(=O)N[C@@H](Cc1ccc(O)cc1)C(=O)N[C@@H](CCCNC(=N)N)C(=O)N[C@@H](CC(C)C)C(N)=O)[C@@H](C)O [Compound 18] (Palmitoyl-MGYQKKLRSHTDKYRL-NH2; C-terminus assumed)
5,90.2%,CCCCCCCCCCCCCCCC(=O)N[C@@H](CCSC)C(=O)NCC(=O)N[C@@H](Cc1ccc(O)cc1)C(=O)N[C@@H](CCC(N)=O)C(=O)N[C@@H](CCCCN)C(=O)N1CCC[C@H]1C(=O)N[C@@H](CC(C)C)C(=O)N[C@@H](CCCNC(=N)N)C(=O)N[C@@H](CO)C(=O)N[C@@H](CCSC)C(=O)N[C@H](C(=O)N[C@@H](CC(=O)O)C(=O)N[C@@H](CCCCN)C(=O)N[C@@H](Cc1ccc(O)cc1)C(=O)N[C@@H](CCCNC(=N)N)C(=O)N[C@@H](CC(C)C)C(N)=O)[C@@H](C)O [Compound 6] (Palmitoyl-MGYQKPLRSMTDKYRL-NH2; C-terminus assumed)
6,77.7%,CCCCCCCCCCCCCCCC(=O)N[C@@H](CCOC)C(=O)NCC(=O)N[C@@H](Cc1ccc(O)cc1)C(=O)N[C@@H](CCC(N)=O)C(=O)N[C@@H](CCCCN)C(=O)N[C@@H](CCCCN)C(=O)N[C@@H](CC(C)C)C(=O)N[C@@H](CCCNC(=N)N)C(=O)N[C@@H](CO)C(=O)N[C@@H](CCOC)C(=O)N[C@H](C(=O)N[C@@H](CC(=O)O)C(=O)N[C@@H](CCCCN)C(=O)N[C@@H](Cc1ccc(O)cc1)C(=O)N[C@@H](CCCNC(=N)N)C(=O)N[C@@H](CC(C)C)C(N)=O)[C@@H](C)O [Compound 22] (Palmitoyl-[hSer](Me)GYQKKLRS[hSer](Me)TDKYRL-NH2)
7,89.4%,CCCCCCCCCCCCCCCC(=O)NCC(=O)NCC(=O)N[C@@H](Cc1ccc(O)cc1)C(=O)N[C@@H](CCC(N)=O)C(=O)N[C@@H](CCCCN)C(=O)N[C@@H](CCCCN)C(=O)N[C@@H](CC(C)C)C(=O)N[C@@H](CCCNC(=N)N)C(=O)N[C@@H](CO)C(=O)N[C@@H](C)C(=O)N[C@H](C(=O)N[C@@H](CC(=O)O)C(=O)N[C@@H](CCCCN)C(=O)N[C@@H](Cc1ccc(O)cc1)C(=O)N[C@@H](CCCNC(=N)N)C(=O)N[C@@H](CC(C)C)C(N)=O)[C@@H](C)O [Compound 25] (Palmitoyl-GGYQKKLRSATDKYRL-NH2; C-terminus assumed)
8,61.4%,CCCCCCCCCCCCCCCC(=O)N[C@@H](CCSC)C(=O)NCC(=O)N[C@@H](Cc1ccc(O)cc1)C(=O)N[C@@H](CCC(N)=O)C(=O)N[C@@H](CCCCN)C(=O)N[C@@H](CCCCN)C(=O)N[C@@H](CC(C)C)C(=O)N[C@@H](CCCNC(=N)N)C(=O)N[C@@H](CO)C(=O)N[C@@H](CCSC)C(=O)N[C@H](C(=O)N[C@@H](CC(=O)O)C(=O)N[C@@H](CCCCN)C(=O)N[C@@H](Cc1ccc(O)cc1)C(=O)N[C@@H](CCCCN)C(=O)N[C@@H](CC(C)C)C(N)=O)[C@@H](C)O [Compound 13] (Palmitoyl-MGYQKKLRSMTDKYKL-NH2; C-terminus assumed)
